Experimental data: paper PMC6858350, “A common mechanism allows selective targeting of GluN2B subunit-containing N-methyl-D-aspartate receptors” (Communications Biology, 2019)

Tests used:
[1] = molecular target: GluN1-1a WT/GluN2B E236A (Rattus norvegicus, UniProt P35439+Q00960, E236A); conditions: GluN2B E236A
[2] = molecular target: T1, GluN1-1a Y109S/GluN2B WT (Rattus norvegicus, UniProt P35439+Q00960, Y109S); conditions: GluN1-1a Y109S
[3] = molecular target: GluN1-1a/GluN2C NMDAR (Rattus norvegicus, UniProt P35439+Q00961); test: cell-based; conditions: read-out: ion current inhibition % ± SEM, GluN2C
[4] = molecular target: T2, GluN1-1a WT/GluN2B F114A (Rattus norvegicus, UniProt P35439+Q00960, F114A); test: cell-based
[5] = molecular target: T3, GluN1-1a L135N/GluN2B WT (Rattus norvegicus, UniProt P35439+Q00960, L135N); test: cell-based
[6] = molecular target: T2, GluN1-1a WT/GluN2B F114A; conditions: GluN2B F114A
[7] = molecular target: T4, GluN1-1a F113S/GluN2B WT (Rattus norvegicus, UniProt P35439+Q00960, F113S); test: cell-based
[8] = molecular target: T5, GluN1-1a WT/GluN2B F176Y (Rattus norvegicus, UniProt P35439+Q00960, F176Y); conditions: GluN2B F176Y
[9] = molecular target: T6, GluN1-1a WT/GluN2B Q110A (Rattus norvegicus, UniProt P35439+Q00960, Q110A); conditions: GluN2B Q110A
[10] = molecular target: T5, GluN1-1a WT/GluN2B F176Y; test: cell-based
[11] = molecular target: GluN1-1a/GluN2A NMDAR (Rattus norvegicus, UniProt P35439+Q00959); test: cell-based; conditions: read-out: ion current inhibition % ± SEM, GluN2A
[12] = molecular target: T1, GluN1-1a Y109S/GluN2B WT; test: cell-based
[13] = molecular target: T7, GluN1-1a WT/GluN2B I111A (Rattus norvegicus, UniProt P35439+Q00960, I111A); test: cell-based
[14] = molecular target: GluN1-1a/GluN2B NMDAR (wildtype) (Rattus norvegicus, UniProt P35439+Q00960); type: cell-based
[15] = molecular target: T8, GluN1-1a/GluN2B (ifenprodil binding site) (Homo sapiens, UniProt Q05586+Q13224); conditions: displacement of [3H]ifenprodil; Ki values previously published; read-out: Ki + SEM; cited from earlier work
T8 construct: expressed in transfected cells; host or cells: mouse L(tk) cells, dexamethasone-inducible expression; membrane fraction

[16] = molecular target: GluN1-1a/GluN2D NMDAR (Rattus norvegicus, UniProt P35439+Q62645); test: cell-based; conditions: read-out: ion current inhibition % ± SEM, GluN2D
[17] = molecular target: T3, GluN1-1a L135N/GluN2B WT; conditions: GluN1-1a L135N
[18] = molecular target: T9, GluN1-1a WT/GluN2B F176A (Rattus norvegicus, UniProt P35439+Q00960, F176A); test: cell-based
[19] = molecular target: T4, GluN1-1a F113S/GluN2B WT; conditions: GluN1-1a F113S
[20] = molecular target: T7, GluN1-1a WT/GluN2B I111A; conditions: GluN2B I111A
[21] = molecular target: T10, GluN1-1a S132A/GluN2B WT (Rattus norvegicus, UniProt P35439+Q00960, S132A); conditions: GluN1-1a S132A
[22] = molecular target: T10, GluN1-1a S132A/GluN2B WT; test: cell-based
[23] = molecular target: T6, GluN1-1a WT/GluN2B Q110A; test: cell-based
[24] = molecular target: T9, GluN1-1a WT/GluN2B F176A; conditions: GluN2B F176A
[25] = maximum inhibition fixed to wildtype value

T9 sequence (Q00960 27-1482 F176A, other chains not shown): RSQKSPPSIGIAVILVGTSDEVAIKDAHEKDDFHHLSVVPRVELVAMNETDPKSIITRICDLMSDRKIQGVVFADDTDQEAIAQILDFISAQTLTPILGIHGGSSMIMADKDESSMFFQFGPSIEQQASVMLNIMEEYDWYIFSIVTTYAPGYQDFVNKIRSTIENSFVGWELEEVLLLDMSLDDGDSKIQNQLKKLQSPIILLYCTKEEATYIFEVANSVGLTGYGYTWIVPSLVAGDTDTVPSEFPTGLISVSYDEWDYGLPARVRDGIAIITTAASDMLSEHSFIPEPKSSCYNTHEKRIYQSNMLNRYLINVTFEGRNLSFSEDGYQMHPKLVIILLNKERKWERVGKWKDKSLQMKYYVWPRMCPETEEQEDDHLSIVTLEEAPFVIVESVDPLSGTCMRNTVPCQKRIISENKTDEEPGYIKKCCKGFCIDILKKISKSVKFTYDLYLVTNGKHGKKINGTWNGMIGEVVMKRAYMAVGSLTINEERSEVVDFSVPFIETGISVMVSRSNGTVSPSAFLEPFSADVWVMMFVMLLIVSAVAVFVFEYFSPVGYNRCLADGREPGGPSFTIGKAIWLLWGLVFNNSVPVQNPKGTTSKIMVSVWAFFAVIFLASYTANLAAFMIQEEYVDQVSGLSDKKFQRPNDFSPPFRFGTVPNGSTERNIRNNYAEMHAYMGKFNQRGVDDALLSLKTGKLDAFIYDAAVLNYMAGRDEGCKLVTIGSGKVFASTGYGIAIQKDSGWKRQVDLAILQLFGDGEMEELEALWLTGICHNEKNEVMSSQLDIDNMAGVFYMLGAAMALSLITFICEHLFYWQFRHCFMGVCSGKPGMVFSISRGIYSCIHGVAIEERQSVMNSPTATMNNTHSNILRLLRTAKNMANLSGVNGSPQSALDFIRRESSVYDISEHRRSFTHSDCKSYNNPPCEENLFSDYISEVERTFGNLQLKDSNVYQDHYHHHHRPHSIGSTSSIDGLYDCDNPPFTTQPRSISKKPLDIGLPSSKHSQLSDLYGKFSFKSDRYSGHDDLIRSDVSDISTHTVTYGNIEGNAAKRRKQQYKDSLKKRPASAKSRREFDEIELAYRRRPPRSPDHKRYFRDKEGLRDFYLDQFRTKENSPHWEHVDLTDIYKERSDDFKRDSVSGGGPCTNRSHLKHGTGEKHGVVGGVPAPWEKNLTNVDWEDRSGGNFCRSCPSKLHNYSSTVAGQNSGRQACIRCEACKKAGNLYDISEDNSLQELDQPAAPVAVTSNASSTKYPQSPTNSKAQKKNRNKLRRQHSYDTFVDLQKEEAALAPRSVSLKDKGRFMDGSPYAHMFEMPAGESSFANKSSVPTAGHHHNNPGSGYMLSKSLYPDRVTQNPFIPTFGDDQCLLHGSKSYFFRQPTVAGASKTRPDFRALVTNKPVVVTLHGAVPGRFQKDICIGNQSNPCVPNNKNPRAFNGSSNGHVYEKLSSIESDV
T6 sequence (Q00960 27-1482 Q110A, other chains not shown): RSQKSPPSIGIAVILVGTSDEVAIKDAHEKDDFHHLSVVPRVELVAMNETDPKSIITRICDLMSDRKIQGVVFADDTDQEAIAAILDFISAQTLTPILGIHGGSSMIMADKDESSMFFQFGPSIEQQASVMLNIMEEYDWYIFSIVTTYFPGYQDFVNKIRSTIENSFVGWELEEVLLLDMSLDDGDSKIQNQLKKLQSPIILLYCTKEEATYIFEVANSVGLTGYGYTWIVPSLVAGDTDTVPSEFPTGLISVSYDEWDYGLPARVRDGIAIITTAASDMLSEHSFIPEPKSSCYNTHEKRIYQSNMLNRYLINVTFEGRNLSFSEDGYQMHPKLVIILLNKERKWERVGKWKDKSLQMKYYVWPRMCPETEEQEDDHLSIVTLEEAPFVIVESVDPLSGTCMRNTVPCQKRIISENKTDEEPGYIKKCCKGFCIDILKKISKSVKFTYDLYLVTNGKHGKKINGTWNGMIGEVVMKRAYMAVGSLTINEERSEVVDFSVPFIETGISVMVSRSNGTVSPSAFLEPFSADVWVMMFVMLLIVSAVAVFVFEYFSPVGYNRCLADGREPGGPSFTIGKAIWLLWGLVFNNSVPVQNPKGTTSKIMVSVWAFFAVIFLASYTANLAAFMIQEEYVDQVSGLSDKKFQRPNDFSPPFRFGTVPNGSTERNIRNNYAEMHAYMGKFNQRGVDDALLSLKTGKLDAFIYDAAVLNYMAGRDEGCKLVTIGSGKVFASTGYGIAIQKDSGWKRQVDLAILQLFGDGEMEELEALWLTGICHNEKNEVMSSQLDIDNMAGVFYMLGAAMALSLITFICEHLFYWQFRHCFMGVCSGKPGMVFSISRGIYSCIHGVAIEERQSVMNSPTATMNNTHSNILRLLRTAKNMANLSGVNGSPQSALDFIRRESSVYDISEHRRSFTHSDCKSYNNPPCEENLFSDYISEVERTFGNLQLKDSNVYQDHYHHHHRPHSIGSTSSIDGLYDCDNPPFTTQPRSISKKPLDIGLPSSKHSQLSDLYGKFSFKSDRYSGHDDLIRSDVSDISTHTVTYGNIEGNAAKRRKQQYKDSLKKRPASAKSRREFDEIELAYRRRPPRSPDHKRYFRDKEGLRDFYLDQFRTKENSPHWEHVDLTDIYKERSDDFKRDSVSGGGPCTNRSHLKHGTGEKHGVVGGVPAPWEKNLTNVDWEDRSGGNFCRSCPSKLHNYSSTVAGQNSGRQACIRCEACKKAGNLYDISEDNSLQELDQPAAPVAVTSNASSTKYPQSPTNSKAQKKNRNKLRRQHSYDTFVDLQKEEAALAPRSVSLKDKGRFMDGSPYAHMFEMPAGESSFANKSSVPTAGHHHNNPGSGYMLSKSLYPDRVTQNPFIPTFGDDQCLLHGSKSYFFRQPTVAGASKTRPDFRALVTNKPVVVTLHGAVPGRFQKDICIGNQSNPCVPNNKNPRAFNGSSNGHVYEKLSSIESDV
T1 sequence (Q00960 27-1482, other chains not shown): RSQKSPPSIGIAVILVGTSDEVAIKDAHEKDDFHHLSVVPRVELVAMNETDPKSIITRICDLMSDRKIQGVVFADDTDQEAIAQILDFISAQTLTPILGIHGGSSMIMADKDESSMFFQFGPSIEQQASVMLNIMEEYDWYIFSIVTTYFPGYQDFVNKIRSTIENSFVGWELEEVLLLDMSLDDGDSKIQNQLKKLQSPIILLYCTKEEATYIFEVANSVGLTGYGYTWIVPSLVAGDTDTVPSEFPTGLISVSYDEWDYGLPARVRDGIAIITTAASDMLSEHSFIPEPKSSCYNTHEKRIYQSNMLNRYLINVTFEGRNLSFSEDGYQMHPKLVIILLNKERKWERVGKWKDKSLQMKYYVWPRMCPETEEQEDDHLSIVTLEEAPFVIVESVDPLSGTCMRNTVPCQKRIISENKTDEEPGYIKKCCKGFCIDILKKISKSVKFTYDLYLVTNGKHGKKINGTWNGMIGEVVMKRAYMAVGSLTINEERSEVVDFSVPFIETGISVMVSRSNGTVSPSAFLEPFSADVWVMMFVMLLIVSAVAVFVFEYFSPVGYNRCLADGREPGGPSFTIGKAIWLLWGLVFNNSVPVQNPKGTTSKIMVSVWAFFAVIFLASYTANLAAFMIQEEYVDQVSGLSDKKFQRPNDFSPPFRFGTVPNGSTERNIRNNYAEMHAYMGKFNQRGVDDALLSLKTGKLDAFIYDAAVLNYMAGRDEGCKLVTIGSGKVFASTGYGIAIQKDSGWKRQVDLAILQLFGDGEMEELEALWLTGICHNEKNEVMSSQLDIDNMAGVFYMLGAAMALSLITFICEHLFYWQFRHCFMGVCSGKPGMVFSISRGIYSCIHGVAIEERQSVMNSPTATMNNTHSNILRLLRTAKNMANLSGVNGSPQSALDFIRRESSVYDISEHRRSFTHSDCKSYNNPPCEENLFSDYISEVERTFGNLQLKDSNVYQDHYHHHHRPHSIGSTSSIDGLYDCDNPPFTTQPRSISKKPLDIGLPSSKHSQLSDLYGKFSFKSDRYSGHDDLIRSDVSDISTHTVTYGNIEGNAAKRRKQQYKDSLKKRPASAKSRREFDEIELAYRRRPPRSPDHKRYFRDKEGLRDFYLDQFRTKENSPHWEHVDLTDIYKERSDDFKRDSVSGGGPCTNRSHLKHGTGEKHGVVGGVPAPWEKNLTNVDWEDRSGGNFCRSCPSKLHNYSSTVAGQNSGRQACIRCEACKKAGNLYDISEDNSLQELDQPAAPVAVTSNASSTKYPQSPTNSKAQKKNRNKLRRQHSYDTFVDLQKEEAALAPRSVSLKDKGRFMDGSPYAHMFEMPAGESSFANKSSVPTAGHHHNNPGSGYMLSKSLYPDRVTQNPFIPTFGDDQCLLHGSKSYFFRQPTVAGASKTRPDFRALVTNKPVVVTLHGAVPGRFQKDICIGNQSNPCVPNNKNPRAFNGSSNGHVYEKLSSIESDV

## Oc1ccc2c(c1)CCN(CCCCc1ccccc1)C[C@H]2O [compound (S)-1]
[1]
  p (slope): 0.99
[1]; flexible A2
  A2 ± SE: 96 ± 8%
[2]
  p (slope): 0.85
[2]; flexible A2
  A2 ± SE: 79 ± 4%
[3]
  inhibition at 10 µM: 19 ± 2%
[4]
  IC50: 38.9 ± 5.28 µM
[5]
  IC50: 3.66 ± 1.18 µM
[6]
  p (slope): 1.26
[6]; [25]
  A2, fixed-to-wildtype (*): 95%
[7]
  IC50: 0.756 ± 0.137 µM
[8]
  p (slope): 0.82
[8]; [25]
  A2, fixed-to-wildtype (*): 95%
[9]
  p (slope): 1.27
[9]; flexible A2
  A2 ± SE: 94 ± 2%
[10]
  IC50: 0.261 ± 0.025 µM
[11]
  inhibition at 10 µM: 6 ± 2%
[12]
  IC50: 0.764 ± 0.189 µM
[13]
  IC50: 1.56 ± 0.504 µM
[14]; TEVC, holding potential −70 mV, 10 µM glycine and 10 µM (S)-glutamate, wildtype, read-out: IC50 ± SE
  IC50: 0.206 ± 0.023 µM
[14]; TEVC, −70 mV, wildtype
  p (slope of the dose-response curve): 0.98
[14]; TEVC, −70 mV, wildtype, flexible A2
  A2 ± SE (maximum inhibition from dose-response curve): 95 ± 2%
[14]; read-out: ion current inhibition % ± SEM, GluN2B
  inhibition at 10 µM: 93 ± 1%
[15]
  Ki: 0.74 ± 0.061 µM
[16]
  inhibition at 10 µM: 21 ± 3%
[17]
  p (slope): 0.98
[17]; flexible A2
  A2 ± SE: 68 ± 7%
[18]
  IC50: 15.5 ± 1.79 µM
[19]
  p (slope): 0.87
[19]; flexible A2
  A2 ± SE: 89 ± 4%
[20]
  p (slope): 0.89
[20]; flexible A2
  A2 ± SE: 73 ± 6%
[21]
  p (slope): 1.16
[21]; flexible A2
  A2 ± SE: 89 ± 1%
[22]
  IC50: 0.691 ± 0.044 µM
[23]
  IC50: 0.243 ± 0.034 µM
[24]
  p (slope): 1.00
[24]; [25]
  A2, fixed-to-wildtype (*): 95%
